# Values joined by “and” are separate entries in the source; they are usually repeats but may differ in a detail not shown here. Equal values may be shown once. Inconclusive results and toxic doses are left out.
# System: BDF1 mice, B16 melanoma ip, median survival T/C
# Experiment: NCI In Vivo Anticancer Drug Screen. Data for tumor model B16 Melanoma (intraperitoneal) in B6D2F1 (BDF1) mice
# Details: endpoint: median survival time, higher = longer survival
# Protocol: The antitumor activity of compounds was measured in mice bearing transplantable tumors. Survival or tumor size were measured and the results are expressed as the measurement made in the treated group (T) divided by the measurement made in the vehicle treated control group (C). The tumor model used in this assay is B16 Melanoma (intraperitoneal) in B6D2F1 (BDF1) mice
# [1] = dose: 6.25 mg/kg/injection, schedule: Q01DX009 (ip), vehicle: saline
# [2] = dose: 12.5 mg/kg/injection, schedule: Q01DX009 (ip), vehicle: saline
# [3] = dose: 25.0 mg/kg/injection, schedule: Q01DX009 (ip), vehicle: saline
# [4] = dose: 50.0 mg/kg/injection, schedule: Q01DX009 (ip), vehicle: saline
# [5] = dose: 6.25 mg/kg/injection, schedule: Q01DX009 (ip), vehicle: saline with Tween-80
# [6] = dose: 100.0 mg/kg/injection, schedule: Q01DX009 (ip), vehicle: Klucel (hydroxypropylcellulose) (HPC)
# [7] = dose: 200.0 mg/kg/injection, schedule: Q01DX009 (ip), vehicle: Klucel (hydroxypropylcellulose) (HPC)
# [8] = dose: 400.0 mg/kg/injection, schedule: Q01DX009 (ip), vehicle: Klucel (hydroxypropylcellulose) (HPC)
# [9] = dose: 12.5 mg/kg/injection, schedule: Q01DX009 (ip), vehicle: saline with Tween-80
# [10] = dose: 25.0 mg/kg/injection, schedule: Q01DX009 (ip), vehicle: saline with Tween-80
# [11] = dose: 100.0 mg/kg/injection, schedule: Q01DX009 (ip), vehicle: saline with Tween-80
# [12] = dose: 100.0 mg/kg/injection, schedule: Q04DX003 (ip), vehicle: Klucel (hydroxypropylcellulose) (HPC)
# [13] = dose: 200.0 mg/kg/injection, schedule: Q04DX003 (ip), vehicle: Klucel (hydroxypropylcellulose) (HPC)
# [14] = dose: 400.0 mg/kg/injection, schedule: Q04DX003 (ip), vehicle: Klucel (hydroxypropylcellulose) (HPC)
# [15] = dose: 100.0 mg/kg/injection, schedule: Q04DX003 (ip), vehicle: saline with Tween-80
# [16] = dose: 200.0 mg/kg/injection, schedule: Q04DX003 (ip), vehicle: saline with Tween-80
# [17] = dose: 50.0 mg/kg/injection, schedule: Q01DX009 (ip), vehicle: saline with Tween-80
# [18] = dose: 50.0 mg/kg/injection, schedule: Q01DX009 (ip), vehicle: Klucel (hydroxypropylcellulose) (HPC)
# [19] = dose: 6.25 mg/kg/injection, schedule: Q01DX009 (ip), vehicle: water
# [20] = dose: 12.5 mg/kg/injection, schedule: Q01DX009 (ip), vehicle: water
# [21] = dose: 25.0 mg/kg/injection, schedule: Q01DX009 (ip), vehicle: water
# [22] = dose: 50.0 mg/kg/injection, schedule: Q01DX009 (ip), vehicle: water
# [23] = dose: 12.5 mg/kg/injection, schedule: Q01DX009 (ip), vehicle: Klucel (hydroxypropylcellulose) (HPC)
# [24] = dose: 25.0 mg/kg/injection, schedule: Q01DX009 (ip), vehicle: Klucel (hydroxypropylcellulose) (HPC)
smiles,measurement,setting,value
ClC[P+](c1ccccc1)(c1ccccc1)c1ccccc1,T/C,"dose: 2.5 mg/kg/injection, schedule: Q01DX009 (ip), vehicle: saline",120 % of control
same,T/C,"dose: 5.0 mg/kg/injection, schedule: Q01DX009 (ip), vehicle: saline",106 % of control
same,T/C,"dose: 10.0 mg/kg/injection, schedule: Q01DX009 (ip), vehicle: saline",101 % of control
O=S(=O)(O)c1ccc(-c2c3nc(c(-c4ccc(S(=O)(=O)O)cc4)c4ccc([nH]4)c(-c4ccc(S(=O)(=O)O)cc4)c4nc(c(-c5ccc(S(=O)(=O)O)cc5)c5ccc2[nH]5)C=C4)C=C3)cc1,T/C,[1],104 % of control
same,T/C,[2],105 % of control
same,T/C,[3],117 % of control
same,T/C,[4],110 % of control
CC(=O)C1=C(O)C2(O)C(=O)c3c(c(C)c4ccc(C)c(O)c4c3O)CC2C(N)C1=O (configuration not stated),T/C,"dose: 1.56 mg/kg/injection, schedule: Q01DX009 (ip), vehicle: saline with Tween-80",100 % of control
same,T/C,"dose: 3.13 mg/kg/injection, schedule: Q01DX009 (ip), vehicle: saline with Tween-80",95 % of control
same,T/C,"dose: 3.75 mg/kg/injection, schedule: Q01DX009 (ip), vehicle: saline + alcohol",103 % of control
same,T/C,[5],100 % of control
same,T/C,"dose: 7.5 mg/kg/injection, schedule: Q01DX009 (ip), vehicle: saline + alcohol",105 % of control
same,T/C,"dose: 15.0 mg/kg/injection, schedule: Q01DX009 (ip), vehicle: saline + alcohol",114 % of control
Cc1ccc(S(=O)(=O)N/N=C\c2cc(Cl)ccc2O)cc1,T/C,[6],100 % of control
same,T/C,[7],105 % of control
same,T/C,[8],102 % of control
O=C(c1cccc(C(=O)n2c3c(c4ccccc42)CCCC3)c1)n1c2c(c3ccccc31)CCCC2,T/C,[5],94 % of control
same,T/C,[9],102 % of control
same,T/C,[10],100 % of control
CCCCC/C(C)=N\Nc1ccccn1,T/C,"dose: 12.5 mg/kg/injection, schedule: Q01DX009 (ip), vehicle: saline sonified",106 % of control
same,T/C,"dose: 25.0 mg/kg/injection, schedule: Q01DX009 (ip), vehicle: saline sonified",100 % of control
same,T/C,"dose: 50.0 mg/kg/injection, schedule: Q01DX009 (ip), vehicle: saline sonified",102 % of control
same,T/C,"dose: 100.0 mg/kg/injection, schedule: Q01DX009 (ip), vehicle: saline sonified",100 % of control
NC(=S)N/N=C1/c2cc(Cl)ccc2-c2c(Cl)cc(Cl)cc21,T/C,[11],93 % of control
same,T/C,"dose: 200.0 mg/kg/injection, schedule: Q01DX009 (ip), vehicle: saline with Tween-80",95 % of control
same,T/C,"dose: 400.0 mg/kg/injection, schedule: Q01DX009 (ip), vehicle: saline with Tween-80",93 % of control
same,T/C,"dose: 800.0 mg/kg/injection, schedule: Q01DX009 (ip), vehicle: saline with Tween-80",95 % of control
O=P(OCC(Br)CBr)(OCC(Br)CBr)OCC(Br)CBr (configuration not stated),T/C,[12],100 % of control
same,T/C,[13],102 % of control
same,T/C,[14],101 % of control
CC(C)C1(C(=O)NNC(=O)CCCc2ccc(N(CCCl)CCCl)cc2)OC2(O)CCCCCN2C1=O (configuration not stated),T/C,"dose: 6.25 mg/kg/injection, schedule: Q04DX003 (ip), vehicle: Klucel (hydroxypropylcellulose) (HPC)",105 % of control
same,T/C,"dose: 12.5 mg/kg/injection, schedule: Q01DX009 (ip), vehicle: DMSO",114 % of control
same,T/C,"dose: 12.5 mg/kg/injection, schedule: Q04DX003 (ip), vehicle: Klucel (hydroxypropylcellulose) (HPC)",118 % of control
same,T/C,[12],167 % of control
CC(=O)CC(=O)Nc1cc(Cl)c(NC(=O)CC(C)=O)cc1Cl,T/C,[15],88 % of control
same,T/C,[16],98 % of control
O=C(Nc1ccccc1F)C(c1ccccc1)c1ccccc1,T/C,[9],101 % of control
same,T/C,[10],95 % of control
same,T/C,[17],95 % of control
same,T/C,[7],86 % of control
CCC1OC(=O)CC(O)C(C)C(OC2OC(C)CC(N(C)C)C2O)C(CC=O)CC(C)C(=O)/C=C/C2(C)OC2C1C (configuration not stated),T/C,[18],88 % of control
same,T/C,[6],92 % of control
CCC(=O)Oc1ccc(OCc2ccccc2)cc1,T/C,[12],95 % of control
same,T/C,[13],86 % of control
same,T/C,[14],97 % of control
CC(=O)NNC(=O)c1cnccn1,T/C,"dose: 22.5 mg/kg/injection, schedule: Q01DX009 (ip), vehicle: saline",97 % of control
same,T/C,"dose: 45.0 mg/kg/injection, schedule: Q01DX009 (ip), vehicle: saline",97 % of control
same,T/C,"dose: 90.0 mg/kg/injection, schedule: Q01DX009 (ip), vehicle: saline",90 % of control
CNc1nc(N(C)C)nc(N(C)C)n1,T/C,[1],115 % of control
same,T/C,[19],96 % of control and 100 % of control
same,T/C,[2],111 % of control
same,T/C,[20],95 % of control and 102 % of control
same,T/C,[3],111 % of control
same,T/C,[21],94 % of control
same,T/C,[4],116 % of control
same,T/C,[22],100 % of control and 118 % of control
same,T/C,"dose: 100.0 mg/kg/injection, schedule: Q01DX009 (ip), vehicle: saline",116 % of control
same,T/C,"dose: 100.0 mg/kg/injection, schedule: Q01DX009 (ip), vehicle: water",100 % of control and 105 % of control
COc1c(I)c2c(c(OC)c1OC)-c1ccc(OC)c(=O)cc1C(NC(C)=O)CC2 (configuration not stated),T/C,"dose: 0.78 mg/kg/injection, schedule: Q01DX009 (ip), vehicle: Klucel (hydroxypropylcellulose) (HPC)",104 % of control
same,T/C,"dose: 1.56 mg/kg/injection, schedule: Q01DX009 (ip), vehicle: Klucel (hydroxypropylcellulose) (HPC)",104 % of control and 124 % of control
same,T/C,"dose: 3.12 mg/kg/injection, schedule: Q01DX009 (ip), vehicle: Klucel (hydroxypropylcellulose) (HPC)",112 % of control
same,T/C,"dose: 6.25 mg/kg/injection, schedule: Q01DX009 (ip), vehicle: Klucel (hydroxypropylcellulose) (HPC)",121 % of control
same,T/C,[23],112 % of control
O=C1C=CC(=O)c2c(Cl)ccc(O)c21,T/C,"dose: 0.63 mg/kg/injection, schedule: Q01DX009 (ip), vehicle: Klucel (hydroxypropylcellulose) (HPC)",90 % of control
same,T/C,"dose: 1.25 mg/kg/injection, schedule: Q01DX009 (ip), vehicle: Klucel (hydroxypropylcellulose) (HPC)",95 % of control
O=c1[nH]c(=O)n(C2CC(O)C(CO)O2)cc1Br (configuration not stated),T/C,[24],101 % of control
same,T/C,[18],117 % of control
COc1cccc(CN2CCCNCC2)c1,T/C,[19],102 % of control
same,T/C,[20],115 % of control
same,T/C,[21],114 % of control
same,T/C,[22],100 % of control
COc1c(Cl)c2c(c(OC)c1OC)-c1ccc(OC)c(=O)cc1C(NC(C)=O)CC2 (configuration not stated),T/C,"dose: 0.38 mg/kg/injection, schedule: Q01DX009 (ip), vehicle: Klucel (hydroxypropylcellulose) (HPC)",118 % of control
same,T/C,"dose: 0.75 mg/kg/injection, schedule: Q01DX009 (ip), vehicle: Klucel (hydroxypropylcellulose) (HPC)",123 % of control
same,T/C,"dose: 3.0 mg/kg/injection, schedule: Q01DX009 (ip), vehicle: Klucel (hydroxypropylcellulose) (HPC)",109 % of control
O=C(O)C(Br)C(Br)c1ccccc1 (configuration not stated),T/C,[15],86 % of control
same,T/C,[16],93 % of control
same,T/C,"dose: 400.0 mg/kg/injection, schedule: Q04DX003 (ip), vehicle: saline with Tween-80",86 % of control
Cc1ccc(S(=O)(=O)Oc2ccc(-c3ccc(OS(=O)(=O)c4ccc(C)cc4)cc3)cc2)cc1,T/C,[17],105 % of control
same,T/C,[11],90 % of control
CCCCC(C)(C(=O)OCC)C(=O)OCC,T/C,[23],108 % of control
same,T/C,[24],101 % of control
same,T/C,[18],102 % of control
same,T/C,[6],101 % of control
same,T/C,[7],102 % of control
same,T/C,[8],94 % of control
C(=C\c1cnc2ccccc2n1)/c1ccc2c(c1)OCO2,T/C,"dose: 75.0 mg/kg/injection, schedule: Q01DX009 (ip), vehicle: Klucel (hydroxypropylcellulose) (HPC)",105 % of control
same,T/C,"dose: 150.0 mg/kg/injection, schedule: Q01DX009 (ip), vehicle: Klucel (hydroxypropylcellulose) (HPC)",94 % of control

# — PubChem BioAssay AID192 (DTP/NCI, 2004)
